# Results published in paper PMC6646405, “A quantitative, high-throughput method identifies protein–glycan interactions via mass spectrometry” (Communications Biology, 2019).
# “And” between values parts separate entries of the source, which are not always exact repeats. Identical values can stand only once.
# Assays:
# [1] = target: human carbonic anhydrase type 1 (Homo sapiens, UniProt P00915); assay: Direct ESI-MS affinity of OSmod for the universal proxy protein (UniPproxy); conditions: read-out: Kd of OSmod for UniPproxy; direct ESI-MS, 200 mM aqueous ammonium acetate, pH 7, 25 °C
# human carbonic anhydrase type 1, sequence (P00915 whole entry): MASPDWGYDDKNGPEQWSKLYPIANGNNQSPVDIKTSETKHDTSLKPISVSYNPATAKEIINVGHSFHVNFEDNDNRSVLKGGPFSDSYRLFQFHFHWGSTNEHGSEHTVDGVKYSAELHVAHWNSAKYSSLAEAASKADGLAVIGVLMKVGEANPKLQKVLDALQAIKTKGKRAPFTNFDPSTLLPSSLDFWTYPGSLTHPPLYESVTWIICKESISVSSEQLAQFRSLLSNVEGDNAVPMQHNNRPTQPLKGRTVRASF
# [2] = target: Sambucus nigra lectin (SNA) (Sambucus nigra, UniProt Q41358); type: binding
# Sambucus nigra lectin (SNA), sequence (Q41358 309-570 limits assumed): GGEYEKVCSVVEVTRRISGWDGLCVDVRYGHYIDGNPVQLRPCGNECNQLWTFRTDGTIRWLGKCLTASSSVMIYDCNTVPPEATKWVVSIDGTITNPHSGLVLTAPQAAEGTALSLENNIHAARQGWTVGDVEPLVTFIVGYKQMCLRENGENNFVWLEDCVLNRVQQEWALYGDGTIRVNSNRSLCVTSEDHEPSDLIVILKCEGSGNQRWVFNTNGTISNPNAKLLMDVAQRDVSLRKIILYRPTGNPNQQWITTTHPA
# Sambucus nigra lectin (SNA), sequence (Q41358 29-289 partner limits assumed): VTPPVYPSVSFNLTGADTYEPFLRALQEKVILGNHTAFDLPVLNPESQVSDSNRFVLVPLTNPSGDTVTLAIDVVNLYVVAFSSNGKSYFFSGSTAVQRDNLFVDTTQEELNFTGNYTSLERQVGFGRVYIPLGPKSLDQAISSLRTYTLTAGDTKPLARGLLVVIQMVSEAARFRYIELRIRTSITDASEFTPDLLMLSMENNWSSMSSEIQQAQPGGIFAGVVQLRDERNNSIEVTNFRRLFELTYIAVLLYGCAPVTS
# [3] = test system: family 51 carbohydrate binding module (CBM51); assay: CUPRA library screening and affinity, CBM51; conditions: 25uM CBM51; mean of 4 DIi values, FigS3a
# Protocol: Unless otherwise noted, the measurements were performed at 25 °C. […] We identified specific ligands from the depletion index (DIi, Eq. 1) – the change in the fractional abundance (Fi, Eq. 2) ratio of ligand i-bound and free ^UniPproxy ions upon addition of GBP. Prior to calculating Fi, we treated each mass spectrum with the Sliding Window Adducts Removal Method (SWARM)[18] to remove contributions to the abundance of ^UniPproxy -OS^mod complex ions from adducts, formed by the ESI process, of neighbouring complex ions (Supplementary Fig. 2). Shown in Fig. 2a is a summary of the DIi measured by CUPRA screening of the 66-component library against S4 (50 μM). As expected, the average DIi for this negative control is close to 1.0 (0.99 ± 0.03). In contrast, CUPRA screening against the positive controls produced decreases in DIi for one or more of the library components. […] Application of CUPRA to human CD22, part of an important class of Neu5Ac-binding GBPs implicated in both innate and adaptive immunity, correctly identified HMO08 as a ligand (Supplementary Fig. 4a). CUPRA screening of MAA at high concentration (50 μM) identified HMO03 and GA06 as ligands. […]
# Using SWARM-treated mass spectra, DIi was calculated for each ligand from the ratio of the fractional abundances (Fi) of ligand (i)-bound and free ^UniPproxy ions in the presence (+GBP) and absence (-GBP) of GBP, Eqs. […]
smiles,measurement,setting,value
"CC(=O)N[C@H]1[C@H](O[C@@H]2[C@H](O[C@]3(C(=O)O)C[C@H](O)[C@@H](NC(C)=O)[C@H]([C@H](O)[C@@H](CO)O[C@]4(C(=O)O)C[C@H](O)[C@@H](NC(C)=O)[C@H]([C@H](O)[C@H](O)CO)O4)O3)[C@@H](O)[C@H](O[C@H]3[C@H](O)[C@@H](O)[C@H](N(CCOCCOCCNC(=O)[C@H](Cc4ccccc4)NC(=O)[C@H](Cc4ccccc4)NC(=O)CCCC(=O)NCCc4ccc(S(N)(=O)=O)cc4)C(C)=O)O[C@@H]3CO)O[C@@H]2CO)O[C@H](CO)[C@H](O)[C@@H]1O [GA10, GalNAcβ1-4(Neu5Acα2-8 Neu5Acα2-3)Galβ1-4Glc-CL]",Kd,[1],14.1 ± 1.9 µM
same,DIi(5uM SNA),[2],1 and 0.9993 and 0.9948 and 0.9939
same,average DI,[2],0.9971
same,average DI,[3],0.9576
